{"source": "patent US20120046251A1", "about": "“INHIBITORS OF SOLUBLE EPOXIDE HYDROLASE TO INHIBIT OR PREVENT NIACIN-INDUCED FLUSHING” (The Regents of the University of California, priority 2009, published 2012)", "key": {"[1]": {"tested_on": "C57BL/6 mice", "test": "Niacin-induced flushing: laser Doppler ear blood flow in anesthetized mice", "assay_type": "in vivo, mouse", "details": "for peak ear tissue perfusion after niacin (composite, FIG. 9): i.p. 30 minutes before niacin 30 mg/kg, TPAU 0.01-1 mg/kg, others 4 mg/kg", "procedure": "For the experiments, mice were anesthetized using Nembutal (50 mg/kg) given by intraperitoneal (I.P.) injection. […]\nLaser Doppler ear blood flow: The change in ear flow was measured using a laser doppler flowmeter (BLF 21, on loan from Transonic Systems, Inc., Ithaca, N.Y.). […] The laser doppler probe was fitted with a sleeve of 2 mm length plastic tubing and attached to a micromanipulator to standardize the depth of the tissue being measured. Blood flow was measured at 30 second intervals before and during exposure to compounds. Baseline blood flow was established by the average of measurements over 5 min prior to injection of drug or vehicle. Data were analyzed as a fraction of baseline.\nMice were anesthetized with Nembutal™ (50 mg/kg) and ear cutaneous perfusion was measured as explained above. Animals were then injected with a niacin solution (30 mg/kg, in physiological saline) and response (% tissue perfusion) after 3 minutes measured."}, "[2]": {"tested_on": "COX-2 / COX-1", "details": "cited from earlier work"}, "[3]": {"details": "325 mg of aspirin, Dunn et al 1995; cited from earlier work"}, "[4]": {"test": "Metabolic stability, method not given", "assay_type": "in vitro ADME", "excerpt": "(§1) (Both the 1- and the 2-adamantyl ureas have been tested and have about the same high activity as an inhibitor of sEH.) Thus, isomers of adamantyl dodecyl urea are preferred inhibitors. It is further expected that N,N′-dodecyl-cyclohexyl urea (DCU), and other inhibitors of sEH, and particularly dodecanoic acid ester derivatives of urea, are suitable for use in the methods of the invention."}, "[5]": {"biological_target": "T1, sEH (Homo sapiens, UniProt P34913)", "T1 sequence (P34913 1-555)": "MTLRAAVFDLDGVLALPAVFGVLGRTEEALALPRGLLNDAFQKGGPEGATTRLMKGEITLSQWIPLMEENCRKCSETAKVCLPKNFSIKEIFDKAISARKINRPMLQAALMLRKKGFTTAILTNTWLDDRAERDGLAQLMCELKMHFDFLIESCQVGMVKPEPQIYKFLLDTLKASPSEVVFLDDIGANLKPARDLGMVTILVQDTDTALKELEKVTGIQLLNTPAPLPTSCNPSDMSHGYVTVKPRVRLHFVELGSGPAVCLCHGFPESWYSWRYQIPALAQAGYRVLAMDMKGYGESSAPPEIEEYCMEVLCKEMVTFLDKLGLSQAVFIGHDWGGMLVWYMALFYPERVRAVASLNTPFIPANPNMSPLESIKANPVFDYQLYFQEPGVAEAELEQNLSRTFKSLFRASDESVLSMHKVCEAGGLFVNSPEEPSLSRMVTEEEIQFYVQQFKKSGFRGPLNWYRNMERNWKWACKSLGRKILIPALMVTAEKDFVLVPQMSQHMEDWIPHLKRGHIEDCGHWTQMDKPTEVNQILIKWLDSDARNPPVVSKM", "test": "sEH inhibition, assay not specified", "assay_type": "biochemical", "excerpt": "as §1"}, "[6]": {"tested_on": "C57BL/6 mice", "test": "Eicosanoid analysis by LC-MS in ear tissue of mice given niacin +/- sEHi", "assay_type": "in vivo, mouse", "details": "for products of the 5-lipoxygenase pathway in ear tissue: niacin 30 mg/kg subcutaneously, TPAU 3 mg/kg pre-treatment, FIG. 10", "procedure": "Samples were spiked with a suite of odd chain length analogs (surrogates) then solvent extracted and partially purified by passing through a solid phase (SP) extraction column using Oasis HLB cartridges. The loaded column was washed with 2 mL 2.5 mM H2PO4+10% methanol and dried under vacuum. Target analytes were eluted with 2 mL of ethyl acetate. The collected extracts were evaporated to dryness under nitrogen, re-dissolved in a final volume of 100 μL with methanol containing deuterated isomers of internal standards including prostaglandins, thromboxanes, epoxides, diols, of arachidonic acid, which allows accurate surrogate recovery calculations and stored at −20° C. until analysis. A 10-20 μL aliquot of each sample was separated by reversed phase HPLC chromatography on a 150 mm×2 mm I.D. 5 μm particle size C18 column using a gradient of water-0.1% acetic acid and 89:11 acetonitrile/methanol (v/v)-0.1% acetic acid. […] The system was calibrated with a minimum of five calibration solutions containing analytical targets at concentrations ranging from 1 to 1000 nM. The analysis of each sample was repeated three times. Calibration check solutions were analyzed at a minimum frequency of 10 hours to ensure stability of the analytical calibration throughout a given analysis.\nAs the flushing effect of niacin is essentially local rather than systemic, the effect of niacin +/−sEHi on ear tissue prostaglandins were also examined by LC-MS.\nProducts of the 5-lipoxygenase pathway are generally considered pro-inflammatory."}, "[7]": {"tested_on": "C57BL/6 mice", "test": "Eicosanoid analysis by LC-MS/MS in plasma/serum of mice given niacin +/- sEHi", "assay_type": "in vivo, mouse"}, "[8]": {"tested_on": "mouse ear", "test": "Capsaicin applied to the mouse ear: tissue perfusion", "assay_type": "in vivo", "excerpt": "Tachyphylaxis to the flushing effect of niacin is well known, although the mechanism has not been elucidated. […] Tachyphylaxis to the vasodilatory effect of capsaicin is likely mediated by repetitive activation of transient receptor potential channels, in particular TRPV1, with resultant desensitization and internalization. See, Fan et al., J Biol Chem (2009) 284:27884-91; Myers, et al., Neuron (2007) 54:847-50. […] Subsequently, mice were exposed to capsaicin daily for 3 days (treated topically, 4 times per day), resulting in abolition of the acute vasodilatory response (i.e. tachyphylaxis to capsaicin). […] Although the exact sequence of events following niacin exposure is not clear it seems that niacin activates a number of targets simultaneously."}, "[9]": {"biological_target": "T1, sEH", "test": "Inhibition of recombinant human sEH", "assay_type": "biochemical"}, "[10]": {"biological_target": "T2, recombinant murine sEH (Mus musculus, UniProt P34914)", "T2 sequence (P34914 1-554)": "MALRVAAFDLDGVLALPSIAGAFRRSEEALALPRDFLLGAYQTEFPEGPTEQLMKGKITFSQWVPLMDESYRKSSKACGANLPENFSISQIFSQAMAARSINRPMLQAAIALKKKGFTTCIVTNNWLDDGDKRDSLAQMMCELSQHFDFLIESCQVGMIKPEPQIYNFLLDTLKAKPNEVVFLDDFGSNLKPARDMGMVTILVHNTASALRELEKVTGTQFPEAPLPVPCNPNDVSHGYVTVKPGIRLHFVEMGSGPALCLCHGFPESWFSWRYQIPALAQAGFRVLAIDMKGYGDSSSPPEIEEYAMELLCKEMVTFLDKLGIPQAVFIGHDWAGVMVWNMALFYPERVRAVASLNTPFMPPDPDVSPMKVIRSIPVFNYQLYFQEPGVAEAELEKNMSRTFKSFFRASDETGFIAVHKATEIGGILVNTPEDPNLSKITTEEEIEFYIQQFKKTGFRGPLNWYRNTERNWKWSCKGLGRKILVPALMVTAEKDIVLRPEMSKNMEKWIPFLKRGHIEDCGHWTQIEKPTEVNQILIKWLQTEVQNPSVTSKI", "test": "Inhibition of recombinant murine sEH", "assay_type": "biochemical"}, "[11]": {"tested_on": "C57BL/6 mice", "test": "PGD2-induced vasodilation/flushing, ear perfusion in mice", "assay_type": "in vivo, mouse", "procedure": "Mouse Model: C57BL/6 mice were obtained from Charles River Laboratories (location). sEHi knockout mice were generated at UC Davis using the C57BL/6 background [EnayetAllah, et al., J Biol. Chem. (2008) 283(52):36592-8]. For the experiments, mice were anesthetized using Nembutal (50 mg/kg) given by intraperitoneal (I.P.) injection. […]\nLaser Doppler ear blood flow: The change in ear flow was measured using a laser doppler flowmeter (BLF 21, on loan from Transonic Systems, Inc., Ithaca, N.Y.). As described by Cheng et al [Proc Natl Acad Sci (2006) 103(17):6682-7] the flow probe was placed against the ventral aspect of the right ear of the anesthetized mouse. The laser doppler probe was fitted with a sleeve of 2 mm length plastic tubing and attached to a micromanipulator to standardize the depth of the tissue being measured. Blood flow was measured at 30 second intervals before and during exposure to compounds. Baseline blood flow was established by the average of measurements over 5 min prior to injection of drug or vehicle. Data were analyzed as a fraction of baseline."}, "[12]": {"details": "niacin 30 mg/kg, wild type mice, FIG. 6"}}}
{"smiles": "CNC(=O)c1cc(Oc2ccc(NC(=O)Nc3ccc(Cl)c(C(F)(F)F)c3)cc2)ccn1", "note": "[sorafenib]", "values": [{"measurement": "peak ear tissue perfusion after niacin (composite, FIG. 9)", "setting": "[1]", "value": "significantly reduced peak ear tissue perfusion"}]}
{"smiles": "CC(=O)Oc1ccccc1C(=O)O", "note": "[aspirin]", "values": [{"measurement": "COX-2 (IC50)/COX-1 (IC50) ratio", "setting": "[2]", "value": 0.32}, {"measurement": "peak ear tissue perfusion after niacin (composite, FIG. 9)", "setting": "[1]", "value": "significantly reduced peak ear tissue perfusion"}, {"measurement": "effectiveness against niacin flushing", "setting": "[3]", "value": "more effective than 165 mg of aspirin or 200 mg ibuprofen"}]}
{"smiles": "COc1ccc2c(c1)c(CC(=O)O)c(C)n2C(=O)c1ccc(Cl)cc1", "note": "[indomethacin]", "values": [{"measurement": "COX-2 (IC50)/COX-1 (IC50) ratio", "setting": "[2]", "value": 33}]}
{"smiles": "CCCCCCCCCCCCNC(=O)NC12CC3CC(CC(C3)C1)C2", "note": "[ADU, N-Adamantyl-N′-dodecyl urea]", "values": [{"measurement": "metabolic stability", "setting": "[4]", "value": "metabolically stable"}, {"measurement": "activity on sEH", "setting": "[5]", "value": "particularly high activity on sEH"}]}
{"smiles": "O=C(O)c1cccnc1", "note": "[niacin, pyridine-3-carboxylic acid]", "values": [{"measurement": "ear tissue PGD2 level", "setting": "[6]; LC-MS, unit not given", "value": 33214}, {"measurement": "products of the 5-lipoxygenase pathway in ear tissue", "setting": "[6]", "value": "increased products of the 5-lipoxygenase pathway"}, {"measurement": "increase of ear tissue PGD2", "setting": "[6]; niacin vs control, P=0.09", "value": 21, "unit": "%"}, {"measurement": "increase in ear perfusion", "setting": "[1]; [12]", "value": "~400", "unit": "%"}, {"measurement": "time of peak ear perfusion after injection", "setting": "[1]; [12]", "value": "approximately 4 minutes"}, {"measurement": "plasma levels of EETs (total EETs or ratio EETs/DHETs)", "setting": "[7]; niacin 30 mg/kg subcutaneous alone", "value": "reduced plasma levels of EETs"}, {"measurement": "PGE2 levels in serum", "setting": "[7]; niacin alone", "value": "without altering PGE2 levels"}, {"measurement": "increase of PGD2 levels in serum", "setting": "[7]; niacin alone", "value": "approximately 100%"}]}
{"smiles": "COc1cc(CNC(=O)CCCC/C=C/C(C)C)ccc1O", "note": "[capsaicin]", "values": [{"measurement": "ear tissue perfusion after topical capsaicin", "setting": "[8]", "value": "time-dependent increase in tissue perfusion"}, {"measurement": "vasodilatory response to niacin after capsaicin tachyphylaxis", "setting": "[1]; capsaicin topically 4 times per day for 3 days, FIG. 11", "value": "blunted vasodilatory response"}, {"measurement": "flushing response to niacin after capsaicin tachyphylaxis plus acute topical capsaicin", "setting": "[1]; repeated capsaicin then acute topical capsaicin prior to niacin injection", "value": "abolished"}, {"measurement": "IC50", "setting": "[9]", "value": 1.5, "unit": "µM"}, {"measurement": "IC50", "setting": "[10]", "value": 1.5, "unit": "µM"}]}
{"smiles": "O=C(NC1CCN(C(=O)C(F)(F)F)CC1)NC12CC3CC(CC(C3)C1)C2", "note": "[TPAU, N-(1-(2,2,2-trifluoroethanoyl)piperidin-4-yl)-N′-(adamant-1-yl)urea]", "values": [{"measurement": "PGD2-induced increase in perfusion", "setting": "[11]; TPAU pretreatment at a concentration sufficient to inhibit niacin-induced perfusion increase, FIG. 4", "value": "did not limit the increase in perfusion with administration of PGD2"}, {"measurement": "products of the 5-lipoxygenase pathway in ear tissue", "setting": "[6]", "value": "limited or abrogated niacin-induced increases in products of the 5-lipoxygenase pathway"}, {"measurement": "peak perfusion after niacin", "setting": "[1]; TPAU 0.05 mg/kg to 1 mg/kg, FIG. 8", "value": "significant reduction in peak perfusion"}, {"measurement": "flushing (% tissue perfusion 3 minutes after niacin)", "setting": "[1]; TPAU 0.01 to 1 mg/kg, 1 hour prior to niacin 30 mg/kg, n=4-6", "value": "dose-dependently reduced flushing"}, {"measurement": "peak ear tissue perfusion after niacin (composite, FIG. 9)", "setting": "[1]", "value": "significantly reduced peak ear tissue perfusion"}, {"measurement": "dose giving total inhibition of flushing", "setting": "[1]; mice, niacin 30 mg/kg", "value": 0.3, "unit": "mg/kg"}, {"measurement": "Ki50 for inhibition of niacin-induced flushing", "setting": "[1]; mice, niacin 30 mg/kg, TPAU pre-treatment", "value": "approximately 0.01 mg/kg"}, {"measurement": "PGD2 levels with niacin + sEHi", "setting": "[7]; TPAU 3 mg/kg, FIG. 5", "value": "did not result in the expected reduction in PGD2"}, {"measurement": "niacin-induced reduction of plasma EETs and ratio EETs/DHETs", "setting": "[7]; sEHi TPAU 3 mg/kg, niacin 30 mg/kg, FIG. 1-3", "value": "counters this reduction in EETs"}]}
{"smiles": "CC(C)(C)c1ccc(/C=C/C(=O)Nc2ccc3c(c2)OCCO3)cc1", "note": "[AMG9810]", "values": [{"measurement": "flushing response to PGD2", "setting": "[11]; AMG9810 10 mg/kg IP, FIG. 12", "value": "blunted the biologic response to PGD2"}, {"measurement": "flushing response to niacin", "setting": "[1]; AMG9810 10 mg/kg IP, in the animal tested", "value": "abolished the flushing response to niacin"}]}
